Measurements taken from the NIST ThermoML archive (doi:10.1016/j.jct.2015.04.030).

Experiment: excess molar enthalpy (molar enthalpy of mixing); xn = mol fraction of the nth substance listed
Conditions: 100 kPa, Liquid, Calvet calorimetry

NCCOCCO [2-(2-aminoethoxy)ethanol] + O
Conditions	excess molar enthalpy [kcal/mol]
303.15 K, x1 = 0.0626	-0.24
303.15 K, x1 = 0.1041	-0.355
303.15 K, x1 = 0.1949	-0.509
303.15 K, x1 = 0.3027	-0.551
303.15 K, x1 = 0.3448	-0.565
303.15 K, x1 = 0.398	-0.556
303.15 K, x1 = 0.5045	-0.483
303.15 K, x1 = 0.604	-0.414
303.15 K, x1 = 0.7062	-0.333
303.15 K, x1 = 0.8105	-0.223
303.15 K, x1 = 0.9035	-0.11
323.15 K, x1 = 0.0628	-0.222
323.15 K, x1 = 0.1062	-0.335
323.15 K, x1 = 0.1982	-0.468
323.15 K, x1 = 0.3017	-0.527
323.15 K, x1 = 0.342	-0.539
323.15 K, x1 = 0.4004	-0.527
323.15 K, x1 = 0.5053	-0.483
323.15 K, x1 = 0.5967	-0.417
323.15 K, x1 = 0.7043	-0.329
323.15 K, x1 = 0.8037	-0.224
323.15 K, x1 = 0.9032	-0.107

NCCNCCNCCN [1,2-ethanediamine, N,N'-bis(2-aminoethyl)-] + O
Conditions	excess molar enthalpy [kcal/mol]
303.15 K, x1 = 0.0497	-0.671
303.15 K, x1 = 0.0697	-0.889
303.15 K, x1 = 0.1129	-1.25
303.15 K, x1 = 0.2006	-1.57
303.15 K, x1 = 0.2478	-1.62
303.15 K, x1 = 0.3031	-1.6
303.15 K, x1 = 0.3527	-1.55
303.15 K, x1 = 0.4038	-1.4
303.15 K, x1 = 0.5069	-1.15
303.15 K, x1 = 0.589	-0.974
303.15 K, x1 = 0.701	-0.71
323.15 K, x1 = 0.0496	-0.633
323.15 K, x1 = 0.1103	-1.2
323.15 K, x1 = 0.1998	-1.44
323.15 K, x1 = 0.2469	-1.5
323.15 K, x1 = 0.3041	-1.49
323.15 K, x1 = 0.4041	-1.32
323.15 K, x1 = 0.4995	-1.11
323.15 K, x1 = 0.602	-0.91
323.15 K, x1 = 0.7006	-0.636

NCCNCCN [di(2-aminoethyl)amine] + O
Conditions	excess molar enthalpy [kcal/mol]
303.15 K, x1 = 0.0509	-0.542
303.15 K, x1 = 0.1001	-0.981
303.15 K, x1 = 0.1544	-1.33
303.15 K, x1 = 0.1962	-1.48
303.15 K, x1 = 0.2416	-1.56
303.15 K, x1 = 0.3018	-1.59
303.15 K, x1 = 0.4026	-1.52
303.15 K, x1 = 0.501	-1.29
303.15 K, x1 = 0.6025	-1.05
303.15 K, x1 = 0.702	-0.811
303.15 K, x1 = 0.7984	-0.57
323.15 K, x1 = 0.0503	-0.504
323.15 K, x1 = 0.0989	-0.911
323.15 K, x1 = 0.2028	-1.41
323.15 K, x1 = 0.3003	-1.51
323.15 K, x1 = 0.4044	-1.38
323.15 K, x1 = 0.51	-1.21
323.15 K, x1 = 0.6027	-0.938
323.15 K, x1 = 0.7018	-0.762
323.15 K, x1 = 0.7983	-0.512

CN(C)CCCO [3-dimethylamino-1-propanol] + O
Conditions	excess molar enthalpy [kcal/mol]
303.15 K, x1 = 0.0505	-0.252
303.15 K, x1 = 0.1027	-0.436
303.15 K, x1 = 0.1998	-0.601
303.15 K, x1 = 0.3003	-0.683
303.15 K, x1 = 0.3515	-0.689
303.15 K, x1 = 0.3975	-0.69
303.15 K, x1 = 0.5019	-0.647
303.15 K, x1 = 0.6483	-0.502
303.15 K, x1 = 0.8001	-0.301
303.15 K, x1 = 0.9452	-0.0951
323.15 K, x1 = 0.0495	-0.229
323.15 K, x1 = 0.1003	-0.35
323.15 K, x1 = 0.1782	-0.485
323.15 K, x1 = 0.3006	-0.587
323.15 K, x1 = 0.3485	-0.597
323.15 K, x1 = 0.3981	-0.6
323.15 K, x1 = 0.4977	-0.568
323.15 K, x1 = 0.6455	-0.438
323.15 K, x1 = 0.7962	-0.269
323.15 K, x1 = 0.9446	-0.0743

NCCNCCO [N-(2-aminoethyl)ethanolamine] + O
303.15 K
Conditions	excess molar enthalpy [kcal/mol]
x1 = 0.1031	-0.554
x1 = 0.202	-0.863
x1 = 0.3019	-0.963
x1 = 0.3567	-0.995
x1 = 0.4023	-0.957
x1 = 0.4991	-0.88
x1 = 0.5997	-0.74
x1 = 0.7027	-0.579
